{
  "source": "patent US5550110A",
  "about": "“Endothelin Antagonists II” (Warner-Lambert Company, priority 1994, dated 1996)",
  "origin": "cited, not measured here",
  "key": {"[1]": {"test_system": "acute hypoxia induced pulmonary hypertension", "details": "in vivo; cited from earlier work"}, "[2]": {"test_system": "blood pressure", "details": "intravenous infusion, stroke prone spontaneous hypertensive rats; cited from earlier work"}, "[3]": {"test_system": "ET-1 induced bronchoconstriction and tracheal smooth muscle contraction", "details": "allergic sheep; cited from earlier work"}, "[4]": {"test_system": "endotoxic shock", "details": "mouse endotoxic shock; cited from earlier work"}, "[5]": {"test_system": "ET-1 induced pressor response", "details": "conscious rats; cited from earlier work"}, "[6]": {"test_system": "ET-1 induced vasoconstriction", "details": "i.v.; cited from earlier work"}, "[7]": {"test_system": "acute CsA toxicity", "details": "rat model; cited from earlier work"}, "[8]": {"test_system": "ischemic acute renal failure", "details": "i.v., cited from earlier work"}, "[9]": {"test_system": "renal vascular resistance", "details": "i.v.; cited from earlier work"}, "[10]": {"test_system": "cerebral vasoconstriction after subarachnoid hemorrhage", "details": "rats; cited from earlier work"}, "[11]": {"test_system": "renal vasoconstriction after renal ischemia", "details": "anesthetized rats; cited from earlier work"}, "[12]": {"test_system": "blood pressure", "details": "orally administered; cited from earlier work"}, "[13]": {"test_system": "vasoconstriction after subarachnoid hemorrhage", "details": "cited from earlier work"}, "[14]": {"test_system": "ET receptor", "details": "cited from earlier work"}, "[15]": {"test_system": "glomerular injury", "details": "intraperitoneal, rats; cited from earlier work"}, "[16]": {"test_system": "vasoconstriction of the basilar artery", "details": "intracisternal, canine subarachnoid hemorrhage model; cited from earlier work"}, "[17]": {"test_system": "ET-1 induced arrhythmia", "details": "rats; cited from earlier work"}},
  "note": "Ends that are not written are not given here. Peptide text beside a SMILES is read from it.",
  "data": [
    {"compound": "CC(C)C[C@@H]1NC(=O)[C@@H](C(C)C)NC(=O)[C@@H]2CCCN2C(=O)[C@@H](CC(=O)O)NC(=O)[C@@H](Cc2c[nH]c3ccccc23)NC1=O", "note": "[BQ-123] (HELM PEPTIDE1{L.[dW].[dD].P.[dV]}$PEPTIDE1,PEPTIDE1,1:R1-5:R2$$$V2.0)", "values": [
      {"measurement": "prevention of acute hypoxia induced pulmonary hypertension", "setting": "[1]", "value": "effective in the prevention of acute hypoxia induced pulmonary hypertension"},
      {"measurement": "blood pressure", "setting": "[2]", "value": "decreased blood pressure significantly"},
      {"measurement": "ET-1 induced bronchoconstriction and tracheal smooth muscle contraction", "setting": "[3]", "value": "block ET-1 induced bronchoconstriction and tracheal smooth muscle contraction"},
      {"measurement": "survival rate", "setting": "[4]", "value": "significantly increased the survival rate"},
      {"measurement": "ET-1 induced pressor response", "setting": "[5]", "value": "effective in antagonizing the ET-1 induced pressor response"},
      {"measurement": "ET-1 induced vasoconstriction in rabbit retinal arteries", "setting": "[6]", "value": "blocked"},
      {"measurement": "acute CsA toxicity", "setting": "[7]", "value": "suppressed"},
      {"measurement": "mitochondrial [Ca2+] accumulation", "setting": "[8]; early phase of ischemic acute renal failure in rats", "value": "prevents the mitochondrial [Ca^2+ ] accumulation"},
      {"measurement": "post-ischemic degeneration of proximal tubular cells", "setting": "[8]; rats", "value": "protects proximal tubular cells from post-ischemic degeneration"},
      {"measurement": "ET-1 induced renal vascular resistance in rats", "setting": "[9]", "value": "blocked"}
    ]},
    {"compound": "COc1cccc(Oc2c(NS(=O)(=O)c3ccc(C(C)(C)C)cc3)ncnc2OCCO)c1", "note": "[Ro 46-2005]", "values": [
      {"measurement": "cerebral vasoconstriction after subarachnoid hemorrhage", "setting": "[10]", "value": "dramatically reduced cerebral vasoconstriction"},
      {"measurement": "renal vasoconstriction after renal ischemia", "setting": "[11]", "value": "protective effect"},
      {"measurement": "antihypertensive effect", "setting": "[12]", "value": "marked antihypertensive effect with a reasonably long duration"}
    ]},
    {"compound": "COc1ccccc1Oc1c(NS(=O)(=O)c2ccc(C(C)(C)C)cc2)nc(-c2ncccn2)nc1OCCO", "note": "[Ro 47-0203]", "values": [
      {"measurement": "blood brain barrier passage", "setting": "[13]; inferred from the rabbit subarachnoid hemorrhage model", "value": "crosses the blood brain barrier"},
      {"measurement": "reversal of vasoconstriction", "setting": "[13]; rabbit subarachnoid hemorrhage model", "value": "effective in a rabbit subarachnoid hemorrhage model in reversing vasoconstriction"}
    ]},
    {"compound": "ET[1-20]: ET-1 lacking the C-terminal amino acid Trp-21 (CSCSSLMDKECVYFCHLDII; ends and bridges not checked; cysteine pairing not given here; UniProt P05305 53-72, looked up, fragment)", "values": [
      {"measurement": "functional activity relative to ET-1", "setting": "[14]", "value": "approximately 1000 fold less"}
    ]},
    {"compound": "FR 139317", "values": [
      {"measurement": "permeability to proteins, glomerular injury, renal function", "setting": "[15]", "value": "reduced abnormal permeability to proteins and limited glomerular injury and prevented renal function deterioration"},
      {"measurement": "vasoconstriction of the basilar artery", "setting": "[16]", "value": "significantly reduced the vasoconstriction of the basilar artery"},
      {"measurement": "ET-1 induced arrhythmia", "setting": "[17]", "value": "suppressed"}
    ]}
  ]
}
